# Activity calls are given as the source filed them. No cut-off for these calls is given here.
# Tests used:
# [1] = tested on: NCI-H322M; assay: Growth inhibition of human NCI-H322M cells after 48 hrs by SRB assay; assay type: functional
# [2] = tested on: NCI-H460; assay: Growth inhibition of human NCI-H460 cells after 48 hrs by SRB assay; assay type: functional; settings: NCI-H460, 48 h
# [3] = tested on: CCRF-CEM; assay: Growth inhibition of human CCRF-CEM cells after 48 hrs by SRB assay; assay type: functional
# [4] = tested on: COLO 205; assay: Growth inhibition of human COLO205 cells after 48 hrs by SRB assay; assay type: functional; settings: COLO 205, 48 h
# [5] = Growth inhibition of human OVCAR4 cells after 48 hrs by SRB assay; assay type: functional; settings: OVCAR-4, 48 h
# [6] = tested on: 786-0; assay: Growth inhibition of human 786-0 cells after 48 hrs by SRB assay; assay type: functional; settings: 786-0, 48 h
# [7] = tested on: SW-620; assay: Growth inhibition of human SW620 cells after 48 hrs by SRB assay; assay type: functional; settings: SW-620, 48 h
# [8] = tested on: SNB-19; assay: Growth inhibition of human SNB19 cells after 48 hrs by SRB assay; assay type: functional; settings: SNB-19, 48 h
# [9] = Growth inhibition of human LOXIMVI cells after 48 hrs by SRB assay; assay type: functional; settings: LOX IMVI
# [10] = tested on: MDA-MB-468; assay: Growth inhibition of human MDA-MB-468 cells after 48 hrs by SRB assay; assay type: functional; settings: MDA-MB-468, 48 h
# [11] = Growth inhibition of human UACC62 cells after 48 hrs by SRB assay; assay type: functional; settings: UACC-62, 48 h
# [12] = tested on: MDA-MB-435; assay: Growth inhibition of human MDA-MB-435 cells after 48 hrs by SRB assay; assay type: functional; settings: MDA-MB-435, 48 h
# [13] = tested on: MCF7; assay: Cell cycle arrest in human MCF7 cells assessed as accumulation at G2/M phase at 4 uM after 24 hrs by propidium iodide staining-based flow cytometry (reference value: 15.79%); assay type: functional
# [14] = tested on: NCI-H522; assay: Growth inhibition of human NCI-H522 cells after 48 hrs by SRB assay; assay type: functional; settings: NCI-H522, 48 h
# [15] = tested on: NCI-H23; assay: Growth inhibition of human NCI-H23 cells after 48 hrs by SRB assay; assay type: functional; settings: NCI-H23, 48 h
# [16] = Growth inhibition of human EKVX cells after 48 hrs by SRB assay; assay type: functional
# [17] = tested on: A498; assay: Growth inhibition of human A498 cells after 48 hrs by SRB assay; assay type: functional; settings: A498, 48 h
# [18] = tested on: MCF7; assay: Growth inhibition of human MCF7 cells after 48 hrs by SRB assay; assay type: functional; settings: MCF7, 48 h
# [19] = tested on: SR; assay: Growth inhibition of human SR cells after 48 hrs by SRB assay; assay type: functional
# [20] = tested on: SK-MEL-2; assay: Growth inhibition of human SK-MEL-2 cells after 48 hrs by SRB assay; assay type: functional; settings: SK-MEL-2, 48 h
# [21] = tested on: RPMI-8226; assay: Growth inhibition of human RPMI8226 cells after 48 hrs by SRB assay; assay type: functional; settings: RPMI-8226, 48 h
# [22] = tested on: SN12C; assay: Growth inhibition of human SN12C cells after 48 hrs by SRB assay; assay type: functional
# [23] = tested on: K562; assay: Growth inhibition of human K562 cells after 48 hrs by SRB assay; assay type: functional; settings: K562, 48 h
# [24] = Growth inhibition of human SF539 cells after 48 hrs by SRB assay; assay type: functional; settings: SF-539, 48 h
# [25] = tested on: SF-268; assay: Growth inhibition of human SF268 cells after 48 hrs by SRB assay; assay type: functional; settings: SF-268, 48 h
# [26] = tested on: SK-MEL-28; assay: Growth inhibition of human SK-MEL-28 cells after 48 hrs by SRB assay; assay type: functional; settings: SK-MEL-28, 48 h
# [27] = Growth inhibition of human UACC257 cells after 48 hrs by SRB assay; assay type: functional; settings: UACC-257, 48 h
# [28] = Growth inhibition of human BT549 cells after 48 hrs by SRB assay; assay type: functional; settings: BT-549, 48 h
# [29] = tested on: TK-10; assay: Growth inhibition of human TK10 cells after 48 hrs by SRB assay; assay type: functional; settings: TK-10, 48 h
# [30] = tested on: M14; assay: Growth inhibition of human M14 cells after 48 hrs by SRB assay; assay type: functional; settings: M14, 48 h
# [31] = Growth inhibition of human SF295 cells after 48 hrs by SRB assay; assay type: functional; settings: SF-295, 48 h
# [32] = tested on: MDA-MB-231; assay: Growth inhibition of human MDA-MB-231 cells after 48 hrs by SRB assay; assay type: functional; settings: MDA-MB-231, 48 h
# [33] = tested on: HT-29; assay: Growth inhibition of human HT-29 cells after 48 hrs by SRB assay; assay type: functional; settings: HT-29, 48 h
# [34] = Growth inhibition of human HCC2998 cells after 48 hrs by SRB assay; assay type: functional; settings: HCC 2998, 48 h
# [35] = Growth inhibition of human MOLT4 cells after 48 hrs by SRB assay; assay type: functional; settings: MOLT-4, 48 h
# [36] = tested on: SK-MEL-5; assay: Growth inhibition of human SK-MEL-5 cells after 48 hrs by SRB assay; assay type: functional; settings: SK-MEL-5, 48 h
# [37] = tested on: A549; assay: Growth inhibition of human A549 cells after 48 hrs by SRB assay; assay type: functional; settings: A549, 48 h
# [38] = Growth inhibition of human HOP92 cells after 48 hrs by SRB assay; assay type: functional; settings: HOP-92, 48 h
# [39] = tested on: HL-60(TB); assay: Growth inhibition of human HL-60(TB) cells after 48 hrs by SRB assay; assay type: functional; settings: HL-60, 48 h
# [40] = Growth inhibition of human NCI-ADR-RES cells after 48 hrs by SRB assay; assay type: functional
# [41] = Growth inhibition of human RXF393 cells after 48 hrs by SRB assay; assay type: functional; settings: RXF 393, 48 h
# [42] = tested on: HOP-62; assay: Growth inhibition of human HOP62 cells after 48 hrs by SRB assay; assay type: functional; settings: HOP-62, 48 h
# [43] = Growth inhibition of human OVCAR8 cells after 48 hrs by SRB assay; assay type: functional; settings: OVCAR-8, 48 h
# [44] = Growth inhibition of human UO31 cells after 48 hrs by SRB assay; assay type: functional; settings: UO-31, 48 h
# [45] = Growth inhibition of human OVCAR5 cells after 48 hrs by SRB assay; assay type: functional; settings: OVCAR-5, 48 h
# [46] = Growth inhibition of human OVCAR3 cells after 48 hrs by SRB assay; assay type: functional; settings: OVCAR-3, 48 h
# [47] = tested on: KM12; assay: Growth inhibition of human KM12 cells after 48 hrs by SRB assay; assay type: functional; settings: KM12, 48 h
# [48] = tested on: DU-145; assay: Growth inhibition of human DU145 cells after 48 hrs by SRB assay; assay type: functional; settings: DU-145, 48 h
# [49] = tested on: ACHN; assay: Growth inhibition of human ACHN cells after 48 hrs by SRB assay; assay type: functional
# [50] = tested on: CAKI-1; assay: Growth inhibition of human Caki1 cells after 48 hrs by SRB assay; assay type: functional; settings: CAKI-1, 48 h
# [51] = Growth inhibition of human HCT15 cells after 48 hrs by SRB assay; assay type: functional; settings: HCT-15, 48 h
# [52] = tested on: SNB-75; assay: Growth inhibition of human SNB75 cells after 48 hrs by SRB assay; assay type: functional; settings: SNB-75, 48 h
# [53] = tested on: IGROV-1; assay: Growth inhibition of human IGROV1 cells after 48 hrs by SRB assay; assay type: functional; settings: IGROV-1, 48 h
# [54] = tested on: MCF7; assay: Cell cycle arrest in human MCF7 cells assessed as accumulation at S phase at 4 uM after 24 hrs by propidium iodide staining-based flow cytometry (reference value: 20.17%); assay type: functional
# [55] = tested on: SK-OV-3; assay: Growth inhibition of human SKOV3 cells after 48 hrs by SRB assay; assay type: functional; settings: SK-OV-3, 48 h
# [56] = tested on: MCF7; assay: Cell cycle arrest in human MCF7 cells assessed as accumulation at G0/G1 phase at 4 uM after 24 hrs by propidium iodide staining-based flow cytometry (reference value: 64.04%); assay type: functional
# [57] = tested on: NCI-H226; assay: Growth inhibition of human NCI-H226 cells after 48 hrs by SRB assay; assay type: functional; settings: NCI-H226, 48 h
# [58] = tested on: T47D; assay: Growth inhibition of human T47D cells after 48 hrs by SRB assay; assay type: functional
# [59] = tested on: U-251; assay: Growth inhibition of human U251 cells after 48 hrs by SRB assay; assay type: functional; settings: U-251, 48 h
# [60] = tested on: MCF7; assay: Growth inhibition of human MCF7 cells assessed as cell viability at 4 uM after 24 hrs by MTT assay; assay type: functional, cell-based
# [61] = Growth inhibition of human Hs578T cells after 48 hrs by SRB assay; assay type: functional; settings: Hs-578T
# [62] = tested on: PC-3; assay: Growth inhibition of human PC3 cells after 48 hrs by SRB assay; assay type: functional; settings: PC-3, 48 h
# [63] = tested on: HCT-116; assay: Growth inhibition of human HCT116 cells after 48 hrs by SRB assay; assay type: functional; settings: HCT-116, 48 h
# [64] = tested on: Malme-3M; assay: Growth inhibition of human MALME-3M cells after 48 hrs by SRB assay; assay type: functional
smiles,measurement,setting,value
COc1ccc(-c2nc3ccccn3c2/C=C/C(=O)c2cc(OC)c(OC)c(OC)c2)cc1,GI50,[1],4.63 µM
same,GI50,[2],4.09 µM
same,GI50,[3],18.8 µM
same,GI50,[4],3.5 µM
same,GI50,[5],5.72 µM
same,GI50,[6],3.9 µM
same,GI50,[7],4.16 µM
same,GI50,[8],25.2 µM
same,GI50,[9],6.05 µM
same,GI50,[10],11.9 µM
same,GI50,[11],5.58 µM
same,GI50,[12],5.76 µM
same,Activity,[13],2.8%
same,GI50,[14],3.12 µM
same,GI50,[15],3.41 µM
same,GI50,[16],7.42 µM
same,GI50,[17],10.4 µM
same,GI50,[18],2.38 µM
same,GI50,[19],3.71 µM
same,GI50,[20],4.95 µM
same,GI50,[21],7.5 µM
same,GI50,[22],11.4 µM
same,GI50,[23],13.1 µM
same,GI50,[24],2.39 µM
same,GI50,[25],4 µM
same,GI50,[26],7.1 µM
same,GI50,[27],5.85 µM
same,GI50,[28],3.27 µM
same,GI50,[29],4.16 µM
same,GI50,[30],9.8 µM
same,GI50,[31],15.2 µM
same,GI50,[32],5.22 µM
same,GI50,[33],4.8 µM
same,GI50,[34],8.27 µM
same,GI50,[35],32.9 µM
same,GI50,[36],2.72 µM
same,GI50,[37],7.96 µM
same,GI50,[38],2.36 µM
same,GI50,[39],34 µM
same,GI50,[40],3.36 µM
same,GI50,[41],2.94 µM
same,GI50,[42],3.62 µM
same,GI50,[43],3.92 µM
same,GI50,[44],1.31 µM
same,GI50,[45],9.33 µM
same,GI50,[46],2.88 µM
same,GI50,[47],4.99 µM
same,GI50,[48],7.21 µM
same,GI50,[49],3.26 µM
same,GI50,[50],8.33 µM
same,GI50,[51],4.85 µM
same,GI50,[52],5.49 µM
same,GI50,[53],8.86 µM
same,Activity,[54],11.65%
same,GI50,[55],14.8 µM
same,Activity,[56],85.55%
same,GI50,[57],24.1 µM
same,GI50,[58],2.59 µM
same,GI50,[59],3 µM
same,inhibition,[60],Active
same,GI50,[61],2.89 µM
same,GI50,[62],19.8 µM
same,GI50,[63],2.26 µM
same,GI50,[64],1.56 µM

# — ChEMBL document CHEMBL3217491, “Design, synthesis and biological evaluation of imidazopyridine/pyrimidine-chalcone derivatives as potential anticancer agents” (2010)
